Results reported in PubChem BioAssay (NCI).
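96-well plates; 48 h exposure; 5 concentrations. Endpoints by linear interpolation between flanking doses. Not reached: highest tested concentration assigned. TGI marks complete inhibition of growth.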

What was measured:
Assay in all cases: inhibition of tumour cell growth, NCI panel, 48 h
NCI-H460 lung = test system: NCI-H460 lung
MDA-N = test system: MDA-N
SW-620 colon = test system: SW-620 colon
SK-OV-3 ovarian = test system: SK-OV-3 ovarian
COLO 205 colon = test system: COLO 205 colon
EKVX NSCLC = test system: EKVX NSCLC
SK-MEL-28 melanoma = test system: SK-MEL-28 melanoma
T-47D breast = test system: T-47D breast
NCI-H226 lung = test system: NCI-H226 lung
RXF 393 renal = test system: RXF 393 renal
KM12 colon = test system: KM12 colon

Row | SMILES | TGI (NCI-H460 lung) [µM] | TGI (MDA-N) [µM] | TGI (SW-620 colon) [µM] | TGI (SK-OV-3 ovarian) [µM] | TGI (COLO 205 colon) [µM] | TGI (EKVX NSCLC) [µM] | TGI (SK-MEL-28 melanoma) [µM] | TGI (T-47D breast) [µM] | TGI (NCI-H226 lung) [µM] | TGI (RXF 393 renal) [µM] | TGI (KM12 colon) [µM]
1 | CCn1c(=O)c2c3cc(O)ccc3oc2c2ccc(O)cc21 | > 100 | > 100 | > 100 | > 100 | 43.9 | 62.6 | > 100 | 36.5 | > 100 | > 100 | > 100
2 | O=C(O)c1ccc(NS(=O)(=O)Cc2ccccc2)cc1 | > 100 | > 100 | > 100 | > 100 | > 100 | > 100 | > 100 | > 100 |  | > 100 | > 100
3 | O=C1/C(=C/c2ccc(Br)s2)NC(=S)N1CN1CCOCC1 | > 100 | > 100 | > 100 |  | 87.9 | > 100 | > 100 | > 100 | > 100 | 59.7 | > 100
4 | C(=Nc1ccc(-c2nc3ccccc3s2)cc1)c1ccco1 | > 100 | > 100 | > 100 | > 100 | > 100 | > 100 | > 100 | > 100 | > 100 | > 100 | > 100
5 | O=C1NC(=S)NC(=O)C1C(c1ccccc1[N+](=O)[O-])C1C(=O)NC(=S)NC1=O | > 100 | > 100 | > 100 |  | > 100 |  | > 100 | > 100 | > 100 | > 100 | > 100
6 | Cc1cc(C)c2c(n1)S(=O)(=O)N(CCCN1CCN(c3cccc(C(F)(F)F)c3)CC1)/C(=C(\O)c1ccc(Cl)cc1)C2=O | 11 | 15 | 39 | 20.3 | 3.58 | 10.7 | 29.8 | 38.9 | 8.61 | 19.1 | 14.6
7 | CCOC(=O)C1C(=O)CC(O)(c2ccccc2)C(C(=O)OCC)C1c1ccc(OC)cc1 (stereo unspecified) | > 100 | 16 | > 74.3 | 89.9 | 47.9 | > 100 | > 100 | > 100 | > 100 | 50.5 | 39.8
8 | Cc1ccc(C(=O)Nc2ccc(CP(=O)(O)O)cc2)cc1NC(=O)c1cccc(NC(=O)Nc2cccc(C(=O)Nc3cc(C(=O)Nc4ccc(CP(=O)(O)O)cc4)ccc3C)c2)c1 | > 100 | > 100 | > 100 | > 100 | > 100 | > 100 | > 100 | > 100 | > 100 | > 100 | > 100
9 | CC(C)/C(Cl)=N\OC(=O)NNc1ccccc1 | > 100 | > 100 | > 44.1 | > 100 | 1.63 | 37.3 | > 100 | 40.1 | 99.7 | > 100 | > 100
10 | CC(=O)OCC1OC(n2c(=S)[nH]c(-c3ccccc3)c(C#N)c2=O)C(OC(C)=O)C(OC(C)=O)C1OC(C)=O (stereo unspecified) | > 100 | > 100 | > 100 | > 100 | > 100 | > 100 | > 100 | > 100 | > 100 | > 100 | > 100
11 | Cc1cccc(C[C@@]2(SCc3ccccc3)C(C)(C)[C@@H]3CC[C@@]2(C)C3)n1 | 31.3 | 60.2 | 30.5 | 51.4 | 29 | 40.2 | 45.3 | 24.9 |  | 30.9 | 36.9
12 | Cc1ccc(C2=Nc3c(c(C)nn3-c3ccccc3)N=C(C(=O)O)C2)cc1 | > 10 | > 10 | > 10 | > 10 | > 10 | > 10 | > 10 | > 10 | > 10 | > 10 | > 10
13 | N#Cc1c2c(c(Nc3ccc(F)cc3)n3c1nc1ccccc13)CCC2 | 23 | 9.75 | 5.71 | 26.8 | 14.1 | 26 | 23.7 | 24 | 22.7 | 7.9 | 23.7
14 | CCOC(=O)c1c(N)n(-c2ccccc2)c(=S)n(-c2ccccc2)c1=O | > 100 | > 100 | > 100 |  | > 100 |  | > 100 | > 100 | > 100 | > 100 | > 100
15 | O=c1nc2c(c(-c3cccc(Cl)c3)[nH]1)COC/C2=C\c1cccc(Cl)c1 | > 100 | > 100 | > 100 | > 100 | > 100 | > 100 |  | > 100 | > 100 | > 100 | > 100
16 | Cc1cc(O)cc(O)c1N=Nc1ccc([N+](=O)[O-])cc1 | 61 | 83.9 | > 100 | > 100 | > 100 | 90.8 | 61 | > 100 |  | 40.5 | 63.1
17 | CN(O)C(=O)Cc1ccc(OCc2cccc(Cl)c2)cc1 | > 100 | > 100 | > 100 | > 100 | > 100 | > 100 | > 100 | > 100 | > 100 | > 100 | > 100
18 | CCN(CCCN(CC)C(=O)N[C@@H](Cc1ccccc1)C(=O)NC)C(=O)N[C@@H](Cc1ccccc1)C(=O)NC | > 100 | > 100 | > 100 | > 100 | > 100 | > 100 | > 100 | > 100 | > 100 | > 100 | > 100
19 | CN1CCN(C(=S)N(C)C(=O)c2ccc(Cl)cc2)CC1 | > 100 | > 100 | > 100 |  | > 100 |  | > 100 | > 100 | > 100 | > 100 | > 100
20 | CCOC(=O)C1CC(O)C(=O)N1C (stereo unspecified) |  | > 100 |  | > 100 | > 100 | > 100 | > 100 | > 100 | > 100 | > 100 | 
21 | O=C1C(C=NCCc2c[nH]c3ccccc23)C(C(F)(F)F)=NN1c1nc2ccccc2s1 (stereo unspecified) | 62.4 | > 100 | > 100 | 76.2 | 34 | 62.9 | > 100 | 25.5 | 68 | 48.5 | 
22 | CO/N=C1/c2sccc2[C@H](NC(=O)CNC(=O)OC(C)(C)C)[C@@H]1O | > 100 | > 100 | > 100 | > 100 | > 100 | > 100 | > 100 | > 100 | > 100 | > 100 | 
23 | CC(C)CCNC(=O)c1ccc(CNC(=O)/C=C/c2ccc(OCc3ccccc3)cc2)cc1 | > 100 | > 100 | > 100 | > 100 | > 100 |  | > 100 | > 100 | > 100 | > 100 | > 100
24 | COC(=O)C1CC(C=[N+](C)C)=C(SC)N1 (stereo unspecified) | > 100 | > 100 | > 100 | > 100 | > 100 | > 100 | > 100 | > 100 |  | > 100 | > 100
25 | CCOP(=O)(OCC)/C(F)=C/c1ccccc1 | > 100 | > 100 | > 100 | > 100 | > 100 | > 100 | > 100 | > 100 |  | > 100 | > 100
26 | COC(c1ccc(C(C)(C)C)cc1)(c1ccc(C(C)(C)C)cc1)c1cc(C(O)(c2cc(C(OC)(c3ccc(C(C)(C)C)cc3)c3ccc(C(C)(C)C)cc3)c(C)cc2C)c2cc(C(OC)(c3ccc(C(C)(C)C)cc3)c3ccc(C(C)(C)C)cc3)c(C)cc2C)c(C)cc1C | > 100 | > 100 | > 100 | > 100 | > 100 | > 100 | > 100 | > 100 | > 100 | > 100 | 
27 | CCOC(=O)C(=O)N1C(C)=C(C(=O)OCC)CC(C(=O)OCC)=C1C | > 100 | > 100 | > 100 | > 100 | > 100 | > 100 | > 100 | > 100 |  | > 100 | > 100
28 | O=C(O[C@H](/C=C/c1ccccc1)P1(=O)N(Cc2ccccc2)[C@@H]2CCCC[C@H]2N1Cc1ccccc1)c1ccccc1 | > 100 | > 100 | > 100 | > 100 | 5.08 | 68 | > 100 | 3.66 | 7.98 |  | 14.2
29 | Brc1ccc2c3c1[C@@H]1O[C@@H]1c1cccc(c1-3)[C@@H]1O[C@H]21 |  | 53.5 | 46.9 | > 71.2 | 52.2 | 39.4 | 50.3 | 45 | > 100 | 32.3 | 36
30 | CC1=CC(=O)N(n2c(C)n[nH]c2=O)C1=O | > 100 | > 100 | > 100 | > 100 | > 100 | > 100 |  | > 100 | > 100 | > 100 | > 100
